Where a chain is given by its changes, count along the chain named. Like-named read-outs stand apart in the source and are kept apart here.
Assays:
[1] = Microsomal stability, mouse microsomes; type: in vitro ADME; details: liver microsomes; for half-life at 5 μM: 0.5 mg/mL mouse microsomes, up to 45 min, read-out: Microsomal stability, t1/2 (min), mouse
Protocol: (§1) The protocols and reagents for the plasma protein binding assay and metabolic stability testing in human and mouse liver microsomes are detailed in our previous report. […] The stability of compounds was tested in human and mouse microsomes (ThermoFisher Scientific). Compounds were tested in triplicate with or without NADPH wells as a negative control for cytochrome P450 metabolism. […] Each assay included a substrate with known activity as a positive control. Time points were analyzed by LC/MS/MS. The peak area for the parent compound is compared to the time zero sample in order to assess the amount of remaining compound.

[2] = Microsomal stability, human microsomes; type: in vitro ADME; details: liver microsomes; for half-life at 5 μM: 0.5 mg/mL human microsomes, up to 45 min, read-out: Microsomal stability, t1/2 (min), human; for microsomal CLint at 5 μM: human microsomes, read-out: Microsomal clearance CLint (μl/min/mg), human
Protocol: as §1

[3] = biological target: T1, human CAR LBD (Homo sapiens, UniProt Q14994); test: LanthaScreen TR-FRET CAR Coactivator assay; type: biochemical; details: nb = no binding
T1 sequence (Q14994 103-352): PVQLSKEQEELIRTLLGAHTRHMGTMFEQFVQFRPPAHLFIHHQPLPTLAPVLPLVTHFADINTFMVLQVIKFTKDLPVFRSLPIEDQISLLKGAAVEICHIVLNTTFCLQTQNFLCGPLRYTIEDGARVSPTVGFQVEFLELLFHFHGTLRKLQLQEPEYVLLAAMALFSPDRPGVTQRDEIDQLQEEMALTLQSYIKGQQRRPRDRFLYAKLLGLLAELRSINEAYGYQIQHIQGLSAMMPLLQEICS
Protocol: We utilized the LanthaScreen TR-FRET CAR Coactivator Binding Assay Kit, goat (Thermo Fisher Scientific, Cat. No. PV4836), which includes GST-tagged human CAR LBD and a fluorescein-labeled PGC1α coactivator peptide. The assay was performed with slight modifications to the manufacturer’s protocol, as previously reported. […] The interaction with the PXR ligand-binding domain (LBD) was assessed using the LanthaScreen TR-FRET PXR Competitive Binding Assay (Thermo Fisher Scientific, PV4839), as previously described. This assay quantifies the ability of test compounds to displace a fluorescent PXR ligand from the receptor. Fluorescence readings were taken on a Synergy 2 Multi-Mode Microplate Reader (BioTek, Winooski, VT). The half-maximal inhibitory concentration (IC50) for PXR LBD was calculated from at least eight data points using GraphPad Prism software.

[4] = biological target: T2, PXR (Homo sapiens, UniProt O75469); test: cell-based; details: PXR antagonism: PXR inhibition (IC50, μM), antagonist mode with 10 μM rifampicin; mean ± SD, n = 3
T2 sequence (O75469 1-434): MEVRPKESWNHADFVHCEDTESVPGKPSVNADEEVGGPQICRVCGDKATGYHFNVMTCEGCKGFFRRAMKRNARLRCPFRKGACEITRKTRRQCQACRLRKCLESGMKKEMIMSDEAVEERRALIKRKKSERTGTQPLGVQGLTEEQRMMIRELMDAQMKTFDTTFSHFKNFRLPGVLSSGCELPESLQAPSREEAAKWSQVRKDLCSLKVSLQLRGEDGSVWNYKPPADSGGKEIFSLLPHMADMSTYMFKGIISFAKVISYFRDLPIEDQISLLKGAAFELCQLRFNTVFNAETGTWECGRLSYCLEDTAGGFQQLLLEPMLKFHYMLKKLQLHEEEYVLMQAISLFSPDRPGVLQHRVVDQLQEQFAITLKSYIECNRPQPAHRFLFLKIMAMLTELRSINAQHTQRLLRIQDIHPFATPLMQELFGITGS

[5] = Plasma stability, mouse plasma; type: in vitro ADME; details: up to 120 min, read-out: Plasma stability, t1/2 (min), mouse
Protocol: The protocols and reagents for the plasma protein binding assay and metabolic stability testing in human and mouse liver microsomes are detailed in our previous report. Briefly, metabolic stability of compounds was assessed at a single concentration (5 μM) at t = 0, 10, 30, and at t = 45 min. The stability of compounds was tested in human and mouse microsomes (ThermoFisher Scientific). Compounds were tested in triplicate with or without NADPH wells as a negative control for cytochrome P450 metabolism. In addition to hepatic metabolism, compounds were also subjected to degradation/modification by enzymes in human (VWR International) and mouse (Biomedica, CZ) plasma for t = 0, 30, 60, and at t = 120 min. Each assay included a substrate with known activity as a positive control. Time points were analyzed by LC/MS/MS. The peak area for the parent compound is compared to the time zero sample in order to assess the amount of remaining compound.

[6] = Plasma stability, human plasma; type: in vitro ADME; details: up to 120 min, read-out: Plasma stability, t1/2 (min), human
[7] = biological target: T3, human CAR LBD (Homo sapiens, UniProt Q14994); test: CAR LBD assembly assay (CAR AA); type: cell-based; details: na = no activity; tox = cytotoxicity in HepG2 cells
T3 construct: constructs encoding helices 3–12 and helix 1 of human CAR LBD; expressed in transfected cells; host or cells: HepG2
T3 sequence (Q14994 103-150 isoform Q14994-2 limits assumed): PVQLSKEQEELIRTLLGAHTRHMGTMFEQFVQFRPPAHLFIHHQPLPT
T3 sequence (Q14994 151-348 isoform Q14994-2 limits assumed): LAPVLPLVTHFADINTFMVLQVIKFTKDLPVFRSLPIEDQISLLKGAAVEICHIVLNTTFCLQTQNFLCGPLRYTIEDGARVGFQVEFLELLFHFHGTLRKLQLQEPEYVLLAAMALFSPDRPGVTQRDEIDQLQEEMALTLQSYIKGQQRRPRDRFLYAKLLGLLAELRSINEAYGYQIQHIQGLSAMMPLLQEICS
Source text: The CAR LBD assembly assay used constructs encoding helices 3–12 and helix 1 of human CAR LBD as described before. GL4.31[luc2P/GAL4UAS/Hygro] (pGAL4 UAS-luc) luciferase reporter vector and pRL-TK Renilla expression vector (Promega) were used in the assay in HepG2 cells transfected using Lipofectamine 3000.

[8] = test system: PXR; design: method as in not given; details: ref not given, cited from earlier work
[9] = test system: HepaRG cells; test: RT-qPCR gene expression in differentiated HepaRG cells; type: cell-based, human; details: 48 h
Protocol: HepaRG cells (Sigma-Aldrich/Merck) were cultivated and differentiated on 12-well plates. Seeded at 26,600 cells/cm^2, they were maintained in William’s medium with supplements. After 14 days, differentiation into hepatocyte-like cells was induced using 1.5% DMSO for another 14 days.
RT-qPCR was utilized to investigate gene expression in HepaRG and PHH. Total RNA was extracted from these cells using the phenol–chloroform method. The concentration of the isolated RNA was then measured using a Nanodrop 1000 spectro-photometer (Thermo Fisher Scientific).
Following RNA isolation, reverse transcription was performed to convert RNA into complementary DNA (cDNA). This step was carried out using the High-capacity cDNA reverse transcription kit (Cat. No. 4374966, ThermoFisher Scientific). The resulting cDNA served as the template for subsequent qPCR reactions.
The qPCR reactions were conducted on the QuantStudio 6 Flex Real-Time PCR System (ThermoFisher Scientific, Waltham, Mas-sachusetts). For these reactions, TaqMan Universal master mix II (Cat. No. 4440047, ThermoFisher Scientific) and TaqMan assays (FAM) utilized in this study are detailed in the Supporting Information. To quantify gene expression, the cycle threshold (Ct) values of the target genes were normalized to the Ct values of reference genes HPRT1 or GAPDH (HepaRG) or TBP (PHH). The normalized values were then expressed as fold changes (2−ΔΔCt) relative to the DMSO control at the specified time points, with the control set as 1.

[10] = biological target: T4, wild-type PXR LBD (Homo sapiens, UniProt O75469); test: Mammalian two-hybrid assay, wt-PXR LBD with SRC-1-VP16 in HepG2; type: cell-based; details: MI891 at 10 μM
T4 construct: HepG2 cells were cotransfected with a GAL4-hPXR LBD construct and pSCR1-VP16 construct; expressed in transfected cells; host or cells: HepG2
T4 sequence (O75469 146-433 limits assumed): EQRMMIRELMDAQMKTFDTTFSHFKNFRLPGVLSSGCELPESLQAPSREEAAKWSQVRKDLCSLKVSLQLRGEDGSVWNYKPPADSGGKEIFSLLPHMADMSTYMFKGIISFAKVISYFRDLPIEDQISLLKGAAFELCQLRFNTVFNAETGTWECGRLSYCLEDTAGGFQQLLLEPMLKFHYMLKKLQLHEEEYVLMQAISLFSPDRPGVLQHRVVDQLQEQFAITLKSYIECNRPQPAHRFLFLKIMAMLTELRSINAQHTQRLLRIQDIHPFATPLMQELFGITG
Source text: (§2) Additionally, the GAL4-PXR-LBD triple mutants (S247W/C284W/S208W) construct and wild-type GAL4-wtPXR vector were used for PXR LBD mutant functional two-hybrid assay as we described before. In the mammalian two-hybrid assay, HepG2 cells were cotransfected with a GAL4-hPXR LBD construct and pSCR1-VP16 construct. Renilla luciferase vector was used for the normalization of firefly luciferase activity to Renilla luciferase activity.

[11] = test system: PXR; design: method as in not given; details: read-out: Ki printed beside SPA70 in Figure 6A; ref not given; cited from earlier work
[12] = biological target: T5, triple mutant (S208W/S247W/C284W) PXR LBD (Homo sapiens, UniProt O75469, C284W/S208W/S247W); test: Mammalian two-hybrid assay, obstructed triple mutant PXR LBD with SRC-1-VP16 in HepG2; type: cell-based
T5 construct: the GAL4-PXR-LBD triple mutants (S247W/C284W/S208W) construct; expressed in transfected cells; host or cells: HepG2
T5 sequence (O75469 146-433 S208W/S247W/C284W limits assumed): T4 sequence (O75469 146-433 limits assumed) with S63W, S102W, C139W
Source text: as §2

Row | Structure (SMILES) | half-life at 5 μM [1] | microsomal CLint at 5 μM ([1]; mouse microsomes, read-out: Microsomal clearance CLint (μl/min/mg), mouse) | half-life at 5 μM [2] | microsomal CLint at 5 μM [2] | CAR TR-FRET (EC50, μM) [3] | IC50 [4] | half-life [5] | half-life [6] | EC50 [7] | IC50 ([8]; quoted in the Introduction, read-out: PXR antagonist IC50) | IC50 ([8]; read-out: IC50 printed beside SPA70 in Figure 6A) | CYP2B6 gene expression ([9]; MI891 5 μM, SPA70 5 μM) | CYP3A4 mRNA expression ([9]; alone or with rifampicin (5 μM), concentration-dependent) | effect on wt-PXR-LBD/SRC1-VP16 two-hybrid [10] | Ki [11] | activation of obstructed mutated PXR LBD two-hybrid [12]
1 | NC(=O)c1cc(Cn2cc(-c3c(-c4ccc(Cl)cc4)nc4c(F)cccn34)nn2)ccc1Cl [Compound 8, 2-Chloro-5-((4-(2-(4-chlorophenyl)-8-fluoroimidazo[1,2-a]pyridin-3-yl)-1H-1,2,3-triazol-1-yl)methyl)benzamide] | 8 min | 168 ± 8 µL/min/mg | 50 ± 4 min | 28 ± 2 µL/min/mg | nb | 12.4 ± 6 µM | > 120 min | > 120 min | 4.14 ± 0.2 µM |  |  |  |  |  |  | 
2 | NC(=O)c1cc(Cn2cc(-c3c(-c4ccc(Cl)cc4)nc4ccc(F)cn34)nn2)ccc1Cl [Compound 10, 2-Chloro-5-((4-(2-(4-chlorophenyl)-6-fluoroimidazo[1,2-a]pyridin-3-yl)-1H-1,2,3-triazol-1-yl)methyl)benzamide] | > 45 min |  | 55 ± 9 min | 26 ± 4 µL/min/mg | nb | 6.46 ± 0.6 µM | > 120 min | > 120 min | > 10 µM |  |  |  |  |  |  | 
3 | CCC[C@H](CC)Oc1ccc(C(=O)OC)cc1NC(=O)c1nnn(-c2cc(OC)ccc2OC)c1C [SJPYT-331] |  |  |  |  |  |  |  |  |  | 0.0071 ± 0.0008 µM |  |  |  |  |  | 
4 | COc1ccc(OC)c(-n2nnc(S(=O)(=O)c3ccc(C(C)(C)C)cc3)c2C)c1 [SPA70, reference compound] |  |  |  |  |  |  |  |  |  |  | […] | downregulated | CYP3A4 mRNA suppression | activated the wild-type (wt) PXR LBD construct | […] | Neither MI891 nor SPA70 activated the obstructed mutated PXR LBD

Source: PMC12305494, “Discovery of PXR Antagonist MI891 and PXR Degrader MI1013 and Their Roles in Hepatic Gene Regulation” (Journal of Medicinal Chemistry, 2025)
